Measurements reported in EP4635565A1, “PRENYLATED TETRAHYDROQUINOLINES AND QUINOLINES WITH PPAR AGONIST ACTIVITY” (Fundación para la Investigación del Hospital Clínico de la …, priority 2024, dated 2025).

How the values were obtained:
THP-1 cells = experiment: Cytotoxicity, Annexin V-FITC/PI dual staining by flow cytometry; assay type: cell-based, human; details: 30 and 100 µM, 24 h
Procedure: The cytotoxicity of tetrahydroquinoline and quinoline esters 5a, 5b, 8a and 8b was evaluated at 30 and 100 µM by flow cytometry to assess cell survival using an Annexin V-FITC/PI dual staining assay. THP-1 cells (3 × 10^4 cells per well) were seeded in 24-well plates and allowed to grow overnight. The medium was then replaced and incubations with the different compounds or DMSO were performed during 24 h. Then, all cells were processed with the Annexin V-assay kit (ANXCFK7, Immunostep, Salamanca, Spain) according to the manufacturer's instruction. A Becton Dickinson LSR Fortessa cytometer (BD Biosciences, Franklin Lakes, NJ, USA) was used for samples, and cell analysis were performed using FACSDiva X20 software.
The potential cytotoxic effects of the compounds of the invention 5a, 5b, 8a, and 8b on the human macrophage cell line THP-1 were evaluated by flow cytometry to assess cell survival using an Annexin V-FITC/PI dual staining assay. The THP-1 cells were treated with concentrations of 30 and 100 µM for 24 h.

PDK4-(PPRE)3-Luc+ = experiment: Pdk4 transactivation assay (PDK4-(PPRE)3-Luc+ reporter in L929sA cells); assay type: cell-based, mouse; details: 10 µM, 6 h
Procedure: Transfection of L929sA cells stably expressing reporter genes was performed using the calcium phosphate precipitation protocol according to standard procedures with a 10-fold excess of the plasmid of interest in a pGL3-basic vector containing Luc+, a modified firefly luciferase gene (Promega Biotec, Madison, Wis,) USA. USA). The Pdk4 reporter was created using an enhancer site linked to the Pdk4 promoter containing three PPRE extracted from mouse liver genomic DNA. The aforementioned plasmid construct was then introduced into a pMet7 backbone, which had previously been cloned with a luciferase gene site, using Xhol and Sacl cut sites. The resulting construct was subjected to geneticin (neomycin) antibiotic selection to isolate individual clones. A stable cell line, designated Pdk4-Luc+, was subsequently established in L929sA cells, which also contained a constitutively expressed galactosidase reporter and a neomycin selection cassette.
(§1) Pyruvate Dehydrogenase Kinase 4 gene (Pdk4), a well-known target gene of PPARs, encodes a protein that regulates the phosphorylation and inactivation of the pyruvate dehydrogenase complex in response to physiological conditions. This response switches the energy source from glucose to fatty acids to maintain blood glucose levels to, thereby, increase lipid metabolism. Because it is a well-known target gene of PPARs, the effect of the 2- and 3-prenylated esters of tetrahydroquinolines and quinolines on a Pdk4 region reported to bind PPARα, was evaluated. The L929sA cells that were stably transfected with a PDK4-(PPRE)3-Luc+ reporter gene construct were used.

Pdk4 = Pdk4 mRNA expression by RT-qPCR in L929sA WT cells; assay type: cell-based, mouse; details: 10 µM, 6 h
Procedure: RNA was isolated using the RNeasy Purification Kit (Qiagen) according to the manufacturer's instructions. cDNA was synthesised using a PrimeScript kit (Takara). RT-qPCR was performed using Light Cycler 480 SYBR Green I Master Mix (Roche).
as §1

NF-κB-IL8P-Luc+ = experiment: NF-κB-IL8P transactivation assay (TNFα-stimulated L929sA cells); assay type: cell-based, mouse; details: 10 µM, 1 h before TNF (2000 IU/ml), total induction time 6 h; compared to GW7647
Procedure: L929sA mouse fibroblasts were stably transfected using the calcium phosphate precipitation protocol, as described previously with p1481.IL8P-Luc+ plasmid construct. The indicated induction was performed at least in triplicates. All conditions were solvent-controlled. Subsequently, the cells were washed with PBS and lysed using TROPIX lysis buffer. Cellular luciferase levels were normalised to those of β-galactosidase (TROPIX, Bedford, MA, USA).
PPARs play crucial roles in controlling inflammatory responses. NF-κB is a transcription factor that plays a pivotal role in the expression of multiple genes involved in the immune and inflammatory responses. To study the potential anti-inflammatory effects of the tetrahydroquinolines and quinolines of the invention, the NF-κB-dependent physiological human IL-8 promoter construct, p1481.IL8P-Luc+, which is stably integrated into L929sA cells, was tested. After transfection, cells were treated at 10 µM with 5a, 5b, 8a, or 8b prior to TNFa stimulation. […] Given the significant decrease in NF-κB-IL8P-Luc+ reporter gene activity observed after treatment with the 2- or 3-prenylated tetrahydroquinolines 5a and 5b and the 3-prenylated quinoline 8b, their potential anti-inflammatory effects at the transcriptional level for other inflammatory mediators was evaluated. To achieve this, the L929sA WT cells were treated with 5a, 5b and 8b at 10 µM for 1 h, followed by TNFa stimulation for a total induction time of 6 h. The expression of inflammatory genes was evaluated by RT-qPCR.

ob/ob mice = experiment: In vivo study in ob/ob mice, biochemical analysis of blood; details: orally, 10 mg/kg/d, 15 days
Procedure: Animal studies were carried out in accordance with Directive 2010/63/EU for experimentation on animals. The handling of the animals and the experimental protocols were approved by the Animal Experimentation Ethics Committee of the University of Valencia (Protocol No. A1469445706311). Six-week-old male ob/ob mice (C57BL/6.Cg-Lepob/J) were supplied by Charles River Laboratories International (Wilmington, MA). Blood samples were collected from mice fasted for 6 hours to determine basal blood glucose levels. The animals, randomly divided into two groups (N ≈ 10-11 per group), were treated daily with vehicle (1% hydroxyethyl cellulose, Sigma-Aldrich) or with tetrahydroquinoline 5a at 10 mg/kg/day, for 15 days orally. After 15 days of treatment, and 6 h of fasting, the mice were anesthetized by inhalation of isoflurane and blood samples were collected in tubes with heparin or EDTA by intracardiac puncture. Plasma samples were obtained and stored at -80°C. Liver and epididymal white adipose tissue were removed and part of both organs were quickly frozen in liquid N2 for qPCR studies.
Plasma levels of total cholesterol and HDL-cholesterol (HDL-c) were determined by enzymatic processes using commercial kits: LabAssay™ Cholesterol (Wako Pure Chemicals Industries, Cape Charles, VA) and Mouse HDL-Cholesterol Assay Kit (Crystal Chem, Elk Grove Village, IL), respectively. Non-HDL cholesterol levels were calculated (total cholesterol - HDL-c). Fasting blood glucose levels were measured using a glucometer (Contour Next, Bayer HealthCare Pharmaceuticals LLC, Berlin, Germany), while insulin levels were determined using the commercial Mouse Insulin ELISA kit (Mercodia, Uppsala, Sweden). The HOMA-IR index was calculated using the following formula: fasting blood glucose (mmol/L) * fasting insulinemia (µU/mL) / 22.5.
Tetrahydroquinoline 5a administered for 15 days (orally, 10 mg/kg/d) to an obese and diabetic mouse model (ob/ob), improved lipid and carbohydrate parameters. Indeed, 5a decreased total cholesterol and non-HDL cholesterol levels, as well as insulin levels and the HOMA-IR index in the blood of oblob mice, compared to vehicle-treated mice (Figures 4A-4D).

[1] = system: hPPARα, hPPARβ/δ, and hPPARγ; experiment: PPAR transactivation assays, agonist profile over the three isoforms; details: always with partial activity on the PPARγ isoform
Procedure: Transfections were stopped after 16 h by adding DMEM/10% FCS. Cells were detached with trypsin, re-seeded in 96-well plates for 6 h in DMEM/10% FCS, and incubated for 24 h in DMEM/0.2% FCS with increasing concentrations of the test compounds or vehicle (DMSO, 0.1% final concentration). At the end of the experiment, cells were washed once with ice-cold PBS, lysed, and luciferase and β-galactosidase activities were measured. Luciferase activity was normalised to that of the internal control, β-galactosidase. All transfection experiments were performed at least five times.

[2] = compared to vehicle-treated mice

CCOC(=O)CC/C(C)=C/CCC1CCc2cc(OCc3ccccc3)ccc2N1C (stereo not drawn) [Compound 5a, Ethyl (E)-7-(6-(benzyloxy)-1-methyl-1,2,3,4-tetrahydroquinolin-2-yl)-4-methylhept-4-enoate] was tested, and the “cytotoxic effects (cell survival)” value (THP-1 cells) was “No cytotoxic effects were observed”, the “transactivation of the PDK4-Luc+ indicator” value (PDK4-(PPRE)3-Luc+; L929sA cells, compared to GW7647 at 1 µM) was “increased the transactivation of the PDK4-Luc+ indicator” and the “maximal transactivation response compared with GW7647” value (PDK4-(PPRE)3-Luc+; GW7647 at 1 µM as positive control) was “outperformed the maximal activity of the prior art compound GW7647”. The “expression of Pdk4 mRNA” value (Pdk4) was “increased expression levels of Pdk4”, the “transactivation of the TNFα-dependent NF-κB-driven reporter” value (NF-κB-IL8P-Luc+) was “can repress the transactivation of the TNFα-dependent NF-κB-driven reporter” and the “levels of hepatic transaminase ALT” value (ob/ob mice) was “did not increase”. For the same molecule, the “levels of hepatic transaminase AST” value (ob/ob mice) was “did not increase”, the HOMA-IR index (ob/ob mice; compared to vehicle, calculated from fasting glucose and insulin) was “decreased” and the non-HDL cholesterol levels (ob/ob mice; compared to vehicle, total cholesterol - HDL-c) was “decreased”. For the same molecule, the insulin levels (ob/ob mice; [2]) was “decreased”, the total cholesterol levels (ob/ob mice; [2]) was “decreased” and the “PPAR agonist activity profile” value [1] was “pan-PPAR agonist activity”.
